Here are results for 26 compounds from patent US4610983A, “N-acyl acidic amino acid diamide derivative, a salt thereof, and an anti-ulcer agent containing the same” (Toyama Chemical Co., Ltd., priority 1984, dated 1986).

Usually inhibition in vivo stands for the relative decrease from the control value, in per cent. Lower therefore signals a response near the control. The term LD50 denotes the dose expected to kill half of the subjects tested. Read a high LD50 as a less toxic substance. One may read the ED50 as the dose that gives a 50% effect, or the effect in half of the subjects. A high value points to a need for a large dose.

One data set has as its system Wistar strain rats. Nature of the data set: Anti-ulcer activity, Indomethacin-induced ulcers, intraperitoneal (inhibition percentage). In kind it is in vivo, Wistar strain rats (male). The following applies: 50 mg/kg intraperitoneal; 1 h before Indomethacin 25 mg/kg p.o.; ulcer lengths after 5 h. As for the experimental part:
On the other hand, Indomethacin alone was orally administered to a control group at the same dose. After 5 hours, the stomach of each rat was removed, and then the sum total of the lengths of the ulcers was measured and compared with that measured for the control group, whereby the inhibition percentage was calculated.
Turning to “DL-N^1,N^5-bis(3-acetoxypropyl)-2-[β-(2-furyl)acrylamido]pentane-1,5-diamide [Test Compound 19]”, the Inhibition percentage is given as 40%.
On to “DL-N^5 -(3-acetoxypropyl)-2-[β-(2-furyl)acrylamido]-N^1 -n-propylpentane-1,5-diamide [Test Compound 20]”, for which the Inhibition percentage turned out to be 52%.

The same data set, now with this note: Rattus norvegicus, ip; 50 mg/kg intraperitoneal; 1 h before Indomethacin 25 mg/kg p.o.; ulcer lengths after 5 h.
In the case of `CCCN(CCC)C(=O)C(CCC(=O)O)NC(=O)c1ccccc1` (stereo not shown) [Proglumide, reference compound], the inhibition in vivo at 50 mg/kg was 0%.
Regarding `CCCN(CCC)C(=O)[C@H](CCC(=O)N(C)C)NC(=O)C1CCC(CN)CC1` (stereo partly shown) [compound 9], the inhibition in vivo at 50 mg/kg is 59%.
As for `CCCN(CCC)C(=O)[C@H](CCC(=O)N(C)C)NC(=O)CN1CCN(C)CC1` [compound 10], the inhibition in vivo at 50 mg/kg was determined as 55%.
Turning to `CCCN(CCC)C(=O)[C@H](CCC(=O)N(C)C)NC(=O)CCN1CCN(C)CC1` [compound 11], the inhibition in vivo at 50 mg/kg turned out to be 41%.
Turning to `CCCN(CCC)C(=O)[C@H](CCC(=O)N(C)C)NC(=O)CCCN1CCN(C)CC1` [compound 12], 50 mg/kg produced 47% inhibition in vivo.
On to `CCCN(CCC)C(=O)[C@H](CCC(=O)N(C)C)NC(=O)CCCN1CCN(CC)CC1` [compound 13], for which the inhibition in vivo at 50 mg/kg came out at 55%.
Take `CCCN(CCC)C(=O)[C@H](CCC(=O)N(C)C)NC(=O)CCCN1CCN(c2ccccc2)CC1` [compound 14]: the inhibition in vivo at 50 mg/kg was 52%.
`CCCN(CCC)C(=O)[C@H](CCC(=O)N(C)C)NC(=O)CCCN1CCC(NC(=O)OCc2ccccc2)CC1` [compound 15] displayed an inhibition in vivo at 50 mg/kg of 51%.
`CCCN(CCC)C(=O)[C@H](CCC(=O)N(C)C)NC(=O)/C=C/C(=O)c1ccc(OC)c(OC)c1` [compound 16]: the inhibition in vivo at 50 mg/kg was determined as 59%.
`CCCCNC(=O)CCC(NC(=O)/C=C/c1ccco1)C(=O)NCCCC` (stereo not shown) [compound 17] yielded an inhibition in vivo at 50 mg/kg of 32.1%.
In turn, `CC(C)CNC(=O)CCC(NC(=O)/C=C/c1ccco1)C(=O)NCC(C)C` (stereo not shown) [compound 18] yielded an inhibition in vivo at 50 mg/kg of 37.9%.
In the case of `CC(=O)OCCCNC(=O)CCC(NC(=O)/C=C/c1ccco1)C(=O)NCCCOC(C)=O` (stereo not shown) [compound 19], testing at 50 mg/kg gave an inhibition in vivo of 53%.
Consider `CCCNC(=O)C(CCC(=O)NCCCOC(C)=O)NC(=O)/C=C/c1ccco1` (stereo not shown) [compound 20], for which 50 mg/kg produced 53.5% inhibition in vivo.
`CCCNC(=O)C(CCC(N)=O)NC(=O)/C=C/c1ccco1` (stereo not shown) [compound 21]: the inhibition in vivo at 50 mg/kg was 70.9%.
`O=C(/C=C/c1ccco1)NC(CCC(=O)NCCCl)C(=O)NCCCl` (stereo not shown) [compound 22] showed an inhibition in vivo at 50 mg/kg of 56%.
Same read-out and setting: next, `CC(C)NC(=O)CCC(NC(=O)/C=C/c1ccco1)C(=O)NC(C)C` (stereo not shown) [compound 23]: 52%.

System in the next data set: not listed separately
As to the kind of experiment: Acute toxicity, intraperitoneal. The following applies: mouse, in vivo, ip. As for the experimental part:
Each of the compounds of the Test Compound Nos. 2, 3, 4, 5, 6, 17, 23, 30 and 31 was intraperitoneally administered to ddY strain mice (.male., body wt. 23±2 g, 10 mice per group), and the LD50 values were measured to find that all of them were 600 mg/kg or more.
In turn, `CCCN(CCC)C(=O)C(CCC(=O)N(C)C)NC(=O)/C=C/c1cc2ccccc2o1` (racemic) [Test Compound 5, DL-2-[β-(2-benzofuryl)acrylamido]-N^5,N^5-dimethyl-N^1,N^1-di(n-propyl)-pentane-1,5-diamide] came in with an LD50 of at least 600 mg/kg.

The data set is the same for the next values; noted with them: mouse, in vivo, ip; intraperitoneal, ddY male mice.
As for `CCCN(CCC)C(=O)C(CCC(=O)N(C)C)NC(=O)/C=C/c1ccco1` (racemic) [Test Compound 2, DL-2-[β-(2-furyl)acrylamido]-N^5,N^5-dimethyl-N^1,N^1-di(n-propyl)-pentane-1,5-diamide], the LD50 is at least 600 mg/kg.
As to `CN(C)C(=O)CCC(NC(=O)/C=C/c1ccco1)C(=O)N(C)C` (racemic) [Test Compound 3, DL-2-[β-(2-furyl)acrylamido]-N^1,N^1,N^5,N^5-tetramethyl-pentane-1,5-diamide], the LD50 was at least 600 mg/kg.
In the case of `CN(C)C(=O)CCC(NC(=O)/C=C/c1cc2ccccc2o1)C(=O)N(C)C` (racemic) [Test Compound 4], the median lethal dose (LD50) was at least 600 mg/kg.
`CN(C)C(=O)CCC(NC(=O)/C=C/c1cc2ccccc2o1)C(=O)N1CCCCC1` (racemic) [Test Compound 6] yielded an LD50 of at least 600 mg/kg.
Still for that read-out and setting: the figure for `CCCCNC(=O)CCC(NC(=O)/C=C/c1ccco1)C(=O)NCCCC` (stereo not shown) [compound 17] is at least 600 mg/kg; for `CC(C)NC(=O)CCC(NC(=O)/C=C/c1ccco1)C(=O)NC(C)C` (stereo not shown) [compound 23] it is at least 600 mg/kg; for `CCCN(CCC)C(=O)CCC(NC(=O)/C=C/c1ccco1)C(=O)N(CCC)CCC` (stereo not shown) [compound 30] it is at least 600 mg/kg.
On the same count and under the same terms, the figure for `CCCCN(CCCC)C(=O)CCC(NC(=O)/C=C/c1ccco1)C(=O)N(CCCC)CCCC` (stereo not shown) [compound 31] is at least 600 mg/kg.

Another data set has as its system Wistar strain rats. Nature of the data set: Anti-ulcer activity, Indomethacin-induced ulcers, oral (ED50). The following applies: Rattus norvegicus, 1 h before Indomethacin 25 mg/kg p.o., ulcer lengths after 5 h, dose giving 50% of control. In kind it is in vivo, Wistar strain rats (male). From the text:
On the other hand, Indomethacin alone was orally administered to a control group at the same dose.
`CCCN(CCC)C(=O)C(CCC(=O)NC)NC(=O)/C=C/c1ccco1` (racemic) [Test Compound 1, DL-2-[β-(2-furyl)acrylamido]-N^5-methyl-N^1,N^1-di(n-propyl)pentane-1,5-diamide] displayed an ED50 of 6.6 mg/kg.
Still for that read-out and setting: the figure for `CCCN(CCC)C(=O)C(CCC(=O)N(C)C)NC(=O)/C=C/c1ccco1` (racemic) [Test Compound 2, DL-2-[β-(2-furyl)acrylamido]-N^5,N^5-dimethyl-N^1,N^1-di(n-propyl)-pentane-1,5-diamide] is 9 mg/kg; for `CN(C)C(=O)CCC(NC(=O)/C=C/c1ccco1)C(=O)N(C)C` (racemic) [Test Compound 3, DL-2-[β-(2-furyl)acrylamido]-N^1,N^1,N^5,N^5-tetramethyl-pentane-1,5-diamide] it is 10.8 mg/kg.
As to `CCCN(CCC)C(=O)C(CCC(=O)O)NC(=O)c1ccccc1` (stereo not shown) [Proglumide, reference compound], the ED50 is 800 mg/kg. This ED50 is about 74-fold higher than that of the compound before.
